Measurements reported in patent US20110071096A1, “Macrolides Having Antibiotic Activity” (IDEXX Laboratories, Inc., priority 2009, published 2011).
≈ marks a conversion by molar mass, not a printed value. Marks after values point to notes of the source that are not given here.

Tests used:
Staphylococcus aureus = experiment: Minimum inhibitory concentration, gram positive bacteria; type: cell-based
Bacillus subtilis = experiment: as above; type: cell-based
Escheria Coli = experiment: Minimum inhibitory concentration, gram negative bacteria; type: cell-based
[1] = tested on: Bordetella bronchispetica; experiment: as above; type: cell-based
Streptococcus pyogenes [2] = conditions: gram positive; from J. Med. Chem., 44, 4137-4156 (2001); cited from earlier work
Streptococcus pneumonia [3] = conditions: gram positive; from J. Med. Chem., 44, 4137-4156 (2001); cited from earlier work
Clostridium perfringens [4] = conditions: gram positive; from J. F. Presscott, Antimicrobial Therapy in Veterinary Medicine, 3rd ed.; cited from earlier work
Enterococcus faecalis [5] = conditions: gram positive; from J. Clin. Micro., 26: 11, 2415-2420 (1988); cited from earlier work
Pasteurella multocida [6] = conditions: gram negative; from J. F. Presscott, Antimicrobial Therapy in Veterinary Medicine, 3rd ed.; cited from earlier work
Bacteroides fragilis [7] = conditions: gram negative; from J. F. Presscott, Antimicrobial Therapy in Veterinary Medicine, 3rd ed.; cited from earlier work
Streptococcus pyogenes [8] = experiment: Minimum inhibitory concentration, gram positive bacteria; type: cell-based
Streptococcus pneumonia [9] = experiment: as above; type: cell-based; conditions: Streptococcus pneumoniae
Clostridium perfringens [10] = experiment: microbe, parasite or virus in culture; type: cell-based; conditions: read-out: Minimum Inhibitory Concentration Clostridium perfringens
Enterococcus faecalis [11] = experiment: Minimum inhibitory concentration, gram positive bacteria; type: cell-based
Pasteurella multocida [12] = experiment: Minimum inhibitory concentration, gram negative bacteria; type: cell-based
Klebsiella Pneumonia = experiment: as above; type: cell-based; conditions: Klebsiella pneumoniae
Bacteroides fragilis [13] = experiment: as above; type: cell-based

**Q.** With `CC[C@H]1OC(=O)[C@H](C)[C@@H](O[C@H]2C[C@@](C)(OC)[C@@H](O)[C@H](C)O2)[C@H](C)[C@@H](O[C@@H]2O[C@H](C)C[C@H](N(C)C)[C@H]2O)[C@](C)(OC)C[C@@H](C)C(=O)[C@H](C)[C@@H](O)[C@]1(C)O` [Clarithromycin] as the compound, how does the MIC (Staphylococcus aureus) read?
**A.** < 0.25 µg/mL

**Q.** And the MIC (Bacillus subtilis)?
**A.** < 0.25 µg/mL

**Q.** What about the MIC (Escheria Coli) of the same compound?
**A.** 32 µg/mL (≈ 42.8 µM)

**Q.** What about the MIC [1] of the same compound?
**A.** 4 µg/mL (≈ 5.35 µM)

**Q.** And the “Minimum Inhibitory Concentration Streptococcus pyogenes” value (Streptococcus pyogenes [2])?
**A.** 0.06^(1) μg/mL

**Q.** And the “Minimum Inhibitory Concentration Streptococcus pneumonia” value (Streptococcus pneumonia [3])?
**A.** 0.03^(1) μg/mL

**Q.** And the “Minimum Inhibitory Concentration Clostridium perfringens” value (Clostridium perfringens [4])?
**A.** 4* μg/mL

**Q.** And the “Minimum Inhibitory Concentration Enterococcus faecalis” value (Enterococcus faecalis [5])?
**A.** 2.7^(3) μg/mL

**Q.** And the “Minimum Inhibitory Concentration Pasteurella multocida” value (Pasteurella multocida [6])?
**A.** 2* μg/mL

**Q.** What about the “Minimum Inhibitory Concentration Bacteroides fragilis” value (Bacteroides fragilis [7]) of the same compound?
**A.** 16* μg/mL

**Q.** Which MIC (Staphylococcus aureus) does the source give for `CC[C@H]1OC(=O)[C@H](C)[C@@H](O[C@H]2C[C@@](C)(OC)[C@@H](O)[C@H](C)O2)[C@H](C)[C@@H](O[C@@H]2O[C@H](C)C[C@H](N(C)C)[C@H]2O)[C@](C)(O)C[C@@H](C)C(=O)[C@H](C)[C@@H](O)[C@]1(C)O` [Erythromycin] here?
**A.** 0.25 µg/mL (≈ 0.341 µM)

**Q.** What about the MIC (Bacillus subtilis) of the same compound?
**A.** 0.25 µg/mL (≈ 0.341 µM)

**Q.** What about the MIC (Escheria Coli) of the same compound?
**A.** 32 µg/mL (≈ 43.6 µM)

**Q.** And the MIC [1]?
**A.** 4 µg/mL (≈ 5.45 µM)

**Q.** And the “Minimum Inhibitory Concentration Streptococcus pyogenes” value (Streptococcus pyogenes [2])?
**A.** 0.06^(1) μg/mL

**Q.** What about the “Minimum Inhibitory Concentration Streptococcus pneumonia” value (Streptococcus pneumonia [3]) of the same compound?
**A.** 0.06^(1) μg/mL

**Q.** What about the “Minimum Inhibitory Concentration Clostridium perfringens” value (Clostridium perfringens [4]) of the same compound?
**A.** 4* μg/mL

**Q.** What about the “Minimum Inhibitory Concentration Enterococcus faecalis” value (Enterococcus faecalis [5]) of the same compound?
**A.** 2.7^(3) μg/mL

**Q.** And the “Minimum Inhibitory Concentration Pasteurella multocida” value (Pasteurella multocida [6])?
**A.** 4* μg/mL

**Q.** What about the “Minimum Inhibitory Concentration Bacteroides fragilis” value (Bacteroides fragilis [7]) of the same compound?
**A.** >8* μg/mL

**Q.** Which MIC (Staphylococcus aureus) does the source give for `CC[C@H]1OC(=O)[C@H](C)[C@@H](OC2CC(C)(OC)C(OCCCN(C)C)C(C)O2)[C@H](C)[C@@H](OC2OC(C)CC(N(C)C)C2O)[C@](C)(OC)C[C@@H](C)C(=O)[C@H](C)[C@@H](O)[C@]1(C)O` (stereo partly drawn) [Formula 2, 4″-DMAP-Clarithromycin ether] here?
**A.** 0.25 µg/mL

**Q.** What about the MIC (Bacillus subtilis) of the same compound?
**A.** 0.25 µg/mL

**Q.** And the MIC (Streptococcus pyogenes [8])?
**A.** 0.25 µg/mL

**Q.** And the MIC (Streptococcus pneumonia [9])?
**A.** 0.25 µg/mL

**Q.** What about the MIC (Clostridium perfringens [10]) of the same compound?
**A.** 2 µg/mL

**Q.** What about the MIC (Enterococcus faecalis [11]) of the same compound?
**A.** 8 µg/mL

**Q.** And the MIC (Escheria Coli)?
**A.** 32 µg/mL

**Q.** What about the MIC (Pasteurella multocida [12]) of the same compound?
**A.** 1 µg/mL

**Q.** And the MIC (Klebsiella Pneumonia)?
**A.** 32 µg/mL

**Q.** What about the MIC [1] of the same compound?
**A.** 4 µg/mL

**Q.** And the MIC (Bacteroides fragilis [13])?
**A.** 2 µg/mL

**Q.** Which MIC (Staphylococcus aureus) does the source give for `CC[C@H]1OC(=O)[C@H](C)[C@@H](O[C@H]2C[C@@](C)(OC)[C@@H](O)[C@H](C)O2)[C@H](C)[C@@H](O[C@@H]2O[C@H](C)C[C@H](N(C)C)[C@H]2O)[C@](C)(O)C[C@@H](C)/C(=N\OCOCCOC)[C@H](C)[C@@H](O)[C@]1(C)O` [Roxithromycin] here?
**A.** 0.25 µg/mL (≈ 0.299 µM)

**Q.** And the MIC (Bacillus subtilis)?
**A.** 0.25 µg/mL (≈ 0.299 µM)

**Q.** What about the MIC (Streptococcus pyogenes [8]) of the same compound?
**A.** 0.25 µg/mL (≈ 0.299 µM)

**Q.** And the MIC (Streptococcus pneumonia [9])?
**A.** 0.25 µg/mL (≈ 0.299 µM)

**Q.** And the MIC (Clostridium perfringens [10])?
**A.** 2 µg/mL (≈ 2.39 µM)

**Q.** What about the MIC (Enterococcus faecalis [11]) of the same compound?
**A.** 8 µg/mL (≈ 9.56 µM)

**Q.** And the MIC (Escheria Coli)?
**A.** 32 µg/mL (≈ 38.2 µM)

**Q.** What about the MIC (Pasteurella multocida [12]) of the same compound?
**A.** 1 µg/mL (≈ 1.19 µM)

**Q.** And the MIC (Klebsiella Pneumonia)?
**A.** 32 µg/mL (≈ 38.2 µM)

**Q.** What about the MIC [1] of the same compound?
**A.** 1 µg/mL (≈ 1.19 µM)

**Q.** What about the MIC (Bacteroides fragilis [13]) of the same compound?
**A.** < 2 µg/mL
